Test results taken from US8859567B2, “Hydrate of 1-{(2S)-2-amino-4-[2,4-bis(trifluoromethyl)-5,8-di-hydropyrido[3,4-D]pyrimidin-7(6H)-yl]-4-oxobutyl}-5,5-difluoro-piperidin-2-one tartrate” (LG Life Sciences Ltd., priority 2010, dated 2014).
Counter-ions that a name gives are not always drawn.

Tests used:
Type in all cases: physicochemical
[1] = Dynamic vapor adsorption/desorption analysis; conditions: for change of crystal form with the change of humidity / weight change according to the change of external humidity: 5˜95% RH; for weight change according to the change of external humidity: 25° C.
Procedure: The dynamic vapor adsorption/desorption data were collected on VTI-SA Vapor Sorption Analyzer. While maintaining 25° C., the vapor adsorption and desorption were repeated three times at intervals of 5% RH in the range of relative humidity (RH) 5˜95%. The samples were not dried prior to the analysis. The equilibrium standard used for analysis was that the weight change within 2 minutes is less than 0.01%.

[2] = Determination of density (bulk-density, tap-density, Carr index); conditions: for Bulk-density: 50 ml measuring cylinder; for Tap-density: ERWEKA densitometer, impulses 250 times
Procedure: Here, the samples were slowly introduced so that they are not closely contacted with each other. After reading a scale on the measuring cylinder, the weight thereof was measured to calculate the bulk-density. After measuring the bulk-density, the measuring cylinder containing the sample was put on ERWEKA densitometer and then subjected to impulses 250 times to measure the tapdensity (Table 5). […] The Can index was calculated from the bulk-density and the tap-density. […] Since it is generally understood that the lower the Carr index, the better the flowability, it could be identified by comparing the Carr indexes that the crystal form I can be easily handled in processing procedures including tabletting as compared to the crystal form II.

[3] = Thermal stability of the crystal form I and II, XRD analysis for change of crystal form
Procedure: About 20 mg of the sample was charged in the sample holder and mounted on Powder X-ray diffractometer to obtain the diffraction pattern in the range of 3˜40°/2θ. The diffraction patterns as obtained are attached to the present specification as FIGS. 1, 5 and 10, respectively. Specific conditions for analysis are as follows.
(§1) After 2 weeks, 4 weeks and 8 weeks, each sample was removed from Duma bottle and analyzed by XRD for identifying any change of the crystal form and HPLC for identifying the stability. For HPLC analysis the sample was dissolved in a mixture of acetonitrile/water/trifluoroacetic acid=30/70/0.1 (v/v/v) and then subjected to the analysis.

[4] = Thermal stability of the crystal form I and II, HPLC analysis
Procedure: as §1, with “analysis. The conditions for HPLC analysis are as follows:” for “analysis.”
Column: Atlantis dC18 (4.6 mm I.D×250 mm L, Particle Size 5, μm, Waters)
Column Temperature: 10° C.
Mobile phase A: MeCN/TFA=100/0.1 (v/v)
Mobile phase B: H2O/TFA=100/0.1 (v/v)
Total analysis time: 55 min.

[5] = Powder X-ray diffraction test and weight change of the crystal form III during moisture adsorption at room temperature under atmosphere
Procedure: The crystal form III was placed on a XRD holder and subjected to XRD test over the time (after 30 minutes, 1 hour and 5 hours) while allowing the moisture adsorption at room temperature under atmosphere (see FIG. 15). In addition, the weight change at room temperature under atmosphere was recorded by times to obtain a graph (see FIG. 14).

Row | SMILES | change of crystal form with the change of humidity [1] | weight change according to the change of external humidity [1] [%] | weight increase at 75% RH ([1]; moisture adsorption, 75% RH) [%] | Bulk-density [2] [g/mL] | Tap-density [2] [g/mL] | time to conversion into the crystal form I in the accelerating stability test ([3]; 40° C./75% RH) [weeks] | change of the crystal form by XRD analysis ([3]; 40° C./75% RH, at 8 week) | stability (HPLC) ([4]; 40° C./75% RH, 0 week) [%] | stability (HPLC) ([4]; 40° C./75% RH, 2 weeks) [%] | stability (HPLC) ([4]; 40° C./75% RH, 4 weeks) [%] | stability (HPLC) ([4]; 40° C./75% RH, 8 weeks) [%] | stability (HPLC) ([4]; 60° C./5% RH, 0 week) [%] | stability (HPLC) ([4]; 60° C./5% RH, 2 weeks) [%] | stability (HPLC) ([4]; 60° C./5% RH, 4 weeks) [%] | stability (HPLC) ([4]; 60° C./5% RH, 8 weeks) [%] | change of the crystal form by XRD analysis ([3]; 40±2° C., 75±5% RH or 60±2° C., 5±5% RH, up to 8 weeks) | moisture desorption on decreasing the humidity ([1]; after adsorption up to 95% RH) [%] | time to conversion into the crystal form I [5]
1 | N[C@@H](CC(=O)N1CCc2c(nc(C(F)(F)F)nc2C(F)(F)F)C1)CN1CC(F)(F)CCC1=O.N[C@@H](CC(=O)N1CCc2c(nc(C(F)(F)F)nc2C(F)(F)F)C1)CN1CC(F)(F)CCC1=O.O.O=C(O)C(O)C(O)C(=O)O.O=C(O)C(O)C(O)C(=O)O [crystal form II] | converted into the crystal form I | ≥ 4.0 | 3.7 | 0.34 | 0.44 | ≤ 8 | converted into the crystal form I | 98.4 | 98.4 | 98.3 | 98.2 | 98.4 | 98.1 | 97.8 | 97.5 | – | – | –
2 | N[C@@H](CC(=O)N1CCc2c(nc(C(F)(F)F)nc2C(F)(F)F)C1)CN1CC(F)(F)CCC1=O [crystal form I, 1-{(2S)-2-amino-4-[2,4-bis(trifluoromethyl)-5,8-dihydropyrido[3,4-d]pyrimidin-7(6H)-yl]-4-oxo-butyl}-5,5-difluoropiperidin-2-one tartrate] | not changed | ≤ 0.8 | – | 0.45 | 0.54 | – | – | 99.4 | 99.3 | 99.2 | 99.2 | 99.4 | 98.8 | 98.6 | 98.4 | did not show any change | – | –
3 | N[C@@H](CC(=O)N1CCc2c(nc(C(F)(F)F)nc2C(F)(F)F)C1)CN1CC(F)(F)CCC1=O.O=C(O)C(O)C(O)C(=O)O [crystal form III] | – | ≥ 3.5 | – | – | – | – | – | – | – | – | – | – | – | – | – | – | ≤ 0.6 | within about one hour
